Here are results for 22 compounds from patent publication US20250188075A1, “SUBSTITUTED HETEROCYCLIC CSNK1 INHIBITORS” (The Broad Institute, Inc., priority 2022, published 2025).

One experiment addresses human CSNK1G3 (Homo sapiens (Human), UniProt Q9Y6M4). The experiment can be described thus: CSNK1G3 assay (ADP-Glo). It is filed as biochemical. As to conditions: median, read-out: CSNK1G IC50 [mol/l] (median). The procedure: CSNK1G3-inhibitory activity of compounds of the present invention in presence of 1 μM adenosine-tri-phosphate (ATP) was quantified employing the CSNK1G3 assay as described in the following paragraphs. In essence, the enzyme activity is measured by quantification of the adenosine-di-phosphate (ADP), which is generated as a co-product of the enzyme reaction, via the “ADP-Glo™ Kinase Assay” kit from the company Promega. This detection system works as follows: In a first step the ATP not consumed in the kinase reaction is quantitatively converted to CAMP employing an adenylate cyclase (“ADP-Glo-reagent”), then the adenylate cyclase is stopped and the ADP generated in the kinase reaction converted to ATP which generates in a luciferase-based reaction a glow-luminescence signal (“Kinase Detection Reagent”).
Recombinant fusion protein of N-terminal Glutathion-S-Transferase (GST) and full-length human CSNK1G3, expressed by baculovirus infected insect cells and purified via Glutathion affinity chromatography, was purchased from Life Technologies (product no. PV3838) and used as enzyme. As substrate for the kinase reaction the biotinylated peptide biotin-Ahx-KRRRAL-pS-VASLPGL (C-terminus in amide form) was used which can be purchased e.g. from the company Biosyntan (Berlin-Buch, Germany).
For the assay 50 nl of a 100 fold concentrated solution of the test compound in DMSO was pipetted into a white 1536-well microtiter plate (Greiner Bio-One, Frickenhausen, Germany), 2 μL of a solution of CSNK1G3 in aqueous assay buffer [50 mM HEPES pH 7.5, 10% (v/v) glycerol, 10 mM MgCl2, 50 mM NaCl, 1 mM dithiothreitol, 0.01% (w/v) bovine serum albumin, 0.01% (v/v) Triton X-100] were added and the mixture was incubated for 15 min at 22° C. to allow pre-binding of the test compounds to the enzyme before the start of the kinase reaction. Then the kinase reaction was started by the addition of 3 μL of a solution of ATP ([…]=>final conc. in the 5 μL assay volume is 1 M) and peptide substrate (50 μM=>final conc. in the 5 μL assay volume is 30 μM) in assay buffer and the resulting mixture was incubated for a reaction time of 30 min at 22° C. The concentration of CSNK1G3 was adjusted depending of the activity of the enzyme lot and was chosen appropriate to have the assay in the linear range, a typical concentration is about 0.06 ng/μL. The reaction was stopped by the addition of 2.5 μL of “ADP-Glo-reagent” (1:1.5 fold diluted with water) and the resulting mixture was incubated at 22° C. for 1 h to convert the ATP not consumed in the kinase reaction completely to CAMP. Subsequently 2.5 μL of the “kinase detection reagent” (1.2 fold more concentrated than recommended by the producer) were added, the resulting mixture was incubated at 22° C. for 1 h and then the luminescence measured with a suitable measurement instrument (e.g. Viewlux™ from Perkin-Elmer). The amount of emitted light was taken as a measure for the amount of ADP generated and thereby for the activity of the CSNK1G3.
The data were normalised (enzyme reaction without inhibitor=0% inhibition, all other assay components but no enzyme=100% inhibition).

Another experiment has as its system total-p53 in MCF-7 cells. The experiment in a line: HTRF total-p53 in MCF-7 cells. The format is cell-based. As to conditions: Homo sapiens, MCF7, 2 h incubation, median, read-out: HTRF total-p53 MCF-7, IC50 - [mol/l] (median). The method, then:
Day 1: MCF-7 cells were seeded (10,000 cells in 12 μl/well) in a 384-well-Small Volume-plate (Greiner Bio One #784075) in culture medium (RPMI 1640; (Biochrom; #F 1275; without PhenolRed)+FCS (final: 10%); (Biochrom; #S 0415)+Insulin (bovine); (final: 10 μg/mL, Biochrom; #K 3510)+L-Alanyl-L-Glutamine; (final: 2 mM, Biochrom; #K 0302)+Natriumpyruvat; (final: 1 mM, Biochrom; #L 0473)+Non Essentiell Amino Acids; (final: 1×, Biochrom; #K 0293)). The cells were then treated with different compounds or DMSO (added with the HP Dispenser) and incubated for 2 h at 37° C. Following incubation, the cells were lysed in 4 μl of lysis buffer for 1 h shaking at RT. Finally, 4 μl of antibody solution was added and the samples are incubated overnight at RT, shaking.
Total-p53 was detected in a sandwich assay format using 2 different specific antibodies, one labeled with Eu3+-Cryptate (donor) and the second with d2 (acceptor). Kit: HTRF total p53 detection assay (Cisbio Cat: 64T53PEG).
Day 2: the plate was read on PHERAstar FS (BMG Labtech settings; optic module: HTRF; integration start: 60 us; integration time: 400 μs; flash lamp). IC50 values were calculated using the DRC application in ShiNy Analysis Platform-SNAP.”

human CSNK1G3, sequence (Q9Y6M4 whole entry): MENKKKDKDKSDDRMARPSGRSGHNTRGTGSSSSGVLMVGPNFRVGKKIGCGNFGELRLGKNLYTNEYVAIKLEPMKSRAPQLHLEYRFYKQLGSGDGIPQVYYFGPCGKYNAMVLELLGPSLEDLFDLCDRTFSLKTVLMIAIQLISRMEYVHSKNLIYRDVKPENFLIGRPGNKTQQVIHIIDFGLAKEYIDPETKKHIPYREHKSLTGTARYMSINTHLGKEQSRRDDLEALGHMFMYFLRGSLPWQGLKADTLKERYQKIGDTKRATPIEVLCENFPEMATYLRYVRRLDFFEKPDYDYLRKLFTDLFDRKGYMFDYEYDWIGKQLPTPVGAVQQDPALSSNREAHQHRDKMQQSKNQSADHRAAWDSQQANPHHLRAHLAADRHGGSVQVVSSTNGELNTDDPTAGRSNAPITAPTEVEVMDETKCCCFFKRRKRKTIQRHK

As for `O=C(Cc1cnc2ccccn12)Nc1cc(-c2[nH]c3cccnc3c2-c2ccccn2)ccn1` [Example 1, 2-imidazo[1,2-a]pyridin-3-yl-N-[4-[3-(2-pyridyl)-^1H-pyrrolo[3,2-b]pyridin-2-yl]-2-pyridyl]acetamide], the IC50 at human CSNK1G3 was determined as 71.7 nM; in the experiment on total-p53 in MCF-7 cells, 193 nM.
In the case of `Cn1cc(CC(=O)Nc2cc(-c3[nH]c4cccnc4c3-c3ccccn3)ccn2)cn1` [Example 2, 2-(1-methylpyrazol-4-yl)-N-[4-[3-(2-pyridyl)-^1H-pyrrolo[3,2-b]pyridin-2-yl]-2-pyridyl]acetamide], the IC50 at human CSNK1G3 is 102 nM; with total-p53 in MCF-7 cells, 264 nM.
The corresponding values for `Cc1nc(CC(=O)Nc2cc(-c3[nH]c4cccnc4c3-c3ccccn3)ccn2)cs1` [Example 3, 2-(2-methylthiazol-4-yl)-N-[4-[3-(2-pyridyl)-^1H-pyrrolo[3,2-b]pyridin-2-yl]-2-pyridyl]acetamide] are 39.1 nM and 184 nM.
Turning to `O=C(Cc1cnco1)Nc1cc(-c2[nH]c3cccnc3c2-c2ccccn2)ccn1` [Example 4], the IC50 with total-p53 in MCF-7 cells came out at 137 nM.
As for `Cn1cnc(CC(=O)Nc2cc(-c3[nH]c4cccnc4c3-c3ccccn3)ccn2)c1` [Example 5, 2-(1-methylimidazol-4-yl)-N-[4-[3-(2-pyridyl)-^1H-pyrrolo[3,2-b]pyridin-2-yl]-2-pyridyl]acetamide], the figures for the IC50 on human CSNK1G3 and in the experiment on total-p53 in MCF-7 cells were 74.5 nM and 924 nM, respectively.
The corresponding values for `O=C(Cc1cnc2ccccc2n1)Nc1cc(-c2[nH]c3cccnc3c2-c2ccccn2)ccn1` [Example 6, N-[4-[3-(2-pyridyl)-^1H-pyrrolo[3,2-b]pyridin-2-yl]-2-pyridyl]-2-quinoxalin-2-yl-acetamide] are 7.89 nM and 41 nM.
The corresponding values for `Cc1nn(C)cc1CC(=O)Nc1cc(-c2[nH]c3cccnc3c2-c2ccccn2)ccn1` [Example 9, 2-(1,3-dimethylpyrazol-4-yl)-N-[4-[3-(2-pyridyl)-^1H-pyrrolo[3,2-b]pyridin-2-yl]-2-pyridyl]acetamide] are 51.2 nM and 210 nM.
The like results for `O=C(Cc1ccon1)Nc1cc(-c2[nH]c3cccnc3c2-c2ccccn2)ccn1` [Example 10, 2-isoxazol-3-yl-N-[4-[3-(2-pyridyl)-^1H-pyrrolo[3,2-b]pyridin-2-yl]-2-pyridyl]acetamide] were, in that order, 33 nM and 262 nM.
Turning to `Cc1ocnc1CC(=O)Nc1cc(-c2[nH]c3cccnc3c2-c2ccccn2)ccn1` [Example 11, 2-(5-methyloxazol-4-yl)-N-[4-[3-(2-pyridyl)-^1H-pyrrolo[3,2-b]pyridin-2-yl]-2-pyridyl]acetamide], the values for the IC50 on human CSNK1G3 and with total-p53 in MCF-7 cells were 120 nM and 375 nM, respectively.
In the case of `Cc1noc(C)c1CC(=O)Nc1cc(-c2[nH]c3cccnc3c2-c2ccccn2)ccn1` [Example 12, 2-(3,5-dimethylisoxazol-4-yl)-N-[4-[3-(2-pyridyl)-^1H-pyrrolo[3,2-b]pyridin-2-yl]-2-pyridyl]acetamide], the IC50 stood at 62.6 nM on human CSNK1G3 and 205 nM in the experiment with total-p53 in MCF-7 cells.
With `Cc1cc(CC(=O)Nc2cc(-c3[nH]c4cccnc4c3-c3ccccn3)ccn2)on1` [Example 13, 2-(3-methylisoxazol-5-yl)-N-[4-[3-(2-pyridyl)-^1H-pyrrolo[3,2-b]pyridin-2-yl]-2-pyridyl]acetamide], the IC50 on human CSNK1G3 was 28.6 nM; in the experiment on total-p53 in MCF-7 cells, 152 nM.
The like results for `Cc1cc(CC(=O)Nc2cc(-c3[nH]c4cccnc4c3-c3ccccn3)ccn2)n(C)n1` [Example 14] were, in that order, 35.4 nM and 143 nM.
Consider `O=C(Cc1cc2ccccn2n1)Nc1cc(-c2[nH]c3cccnc3c2-c2ccccn2)ccn1` [Example 15, 2-pyrazolo[1,5-a]pyridin-2-yl-N-[4-[3-(2-pyridyl)-^1H-pyrrolo[3,2-b]pyridin-2-yl]-2-pyridyl]acetamide], for which the IC50 came out at 10.3 nM at human CSNK1G3 and 69.3 nM in the experiment on total-p53 in MCF-7 cells.
Turning to `Cc1cc(CC(=O)Nc2cc(-c3[nH]c4cccnc4c3-c3ccccn3)ccn2)nn1C` [Example 16, 2-(1,5-dimethylpyrazol-3-yl)-N-[4-[3-(2-pyridyl)-^1H-pyrrolo[3,2-b]pyridin-2-yl]-2-pyridyl]acetamide], the IC50 came out at 31.7 nM at human CSNK1G3 and 193 nM with total-p53 in MCF-7 cells.
The corresponding values for `Cc1nn(C)c(C)c1CC(=O)Nc1cc(-c2[nH]c3cccnc3c2-c2ccccn2)ccn1` [Example 17, N-[4-[3-(2-pyridyl)-^1H-pyrrolo[3,2-b]pyridin-2-yl]-2-pyridyl]-2-(1,3,5-trimethylpyrazol-4-yl)acetamide] are 68.2 nM and 198 nM.
Regarding `Cc1nc(C)c(CC(=O)Nc2cc(-c3[nH]c4cccnc4c3-c3ccccn3)ccn2)s1` [Example 18, 2-(2,4-dimethylthiazol-5-yl)-N-[4-[3-(2-pyridyl)-^1H-pyrrolo[3,2-b]pyridin-2-yl]-2-pyridyl]acetamide], the IC50 worked out at 15.4 nM at human CSNK1G3 and 56.6 nM in the experiment with total-p53 in MCF-7 cells.
Regarding `Cn1cc(C(CC(F)F)C(=O)Nc2cc(-c3[nH]c4cccnc4c3-c3ccccn3)ccn2)cn1` (stereo not shown) [Example 19, 4,4-difluoro-2-(1-methylpyrazol-4-yl)-N-[4-[3-(2-pyridyl)-^1H-pyrrolo[3,2-b]pyridin-2-yl]-2-pyridyl]butanamide], the results for the IC50 at human CSNK1G3 and with total-p53 in MCF-7 cells were 62.7 nM and 407 nM, respectively.
Turning to `O=C(Cc1ccn(CC(F)(F)F)n1)Nc1cc(-c2[nH]c3cccnc3c2-c2ccccn2)ccn1` [Example 20, N-[4-[3-(2-pyridyl)-^1H-pyrrolo[3,2-b]pyridin-2-yl]-2-pyridyl]-2-[1-(2,2,2-trifluoroethyl)pyrazol-3-yl]acetamide], the IC50 came out at 14.8 nM on human CSNK1G3 and 184 nM with total-p53 in MCF-7 cells.
The corresponding values for `Cn1nc(CC(=O)Nc2cc(-c3[nH]c4cccnc4c3-c3ccccn3)ccn2)cc1C(F)(F)F` [Example 21, 2-[1-methyl-5-(trifluoromethyl)pyrazol-3-yl]-N-[4-[3-(2-pyridyl)-^1H-pyrrolo[3,2-b]pyridin-2-yl]-2-pyridyl]acetamide] are 29.7 nM and 96.9 nM.
The corresponding values for `O=C(Cc1ccns1)Nc1cc(-c2[nH]c3cccnc3c2-c2ccccn2)ccn1` [Example 22, 2-isothiazol-5-yl-N-[4-[3-(2-pyridyl)-^1H-pyrrolo[3,2-b]pyridin-2-yl]-2-pyridyl]acetamide] are 27 nM and 119 nM.
Consider `O=C(Cc1ccno1)Nc1cc(-c2[nH]c3cccnc3c2-c2ccccn2)ccn1` [Example 23, 2-isoxazol-5-yl-N-[4-[3-(2-pyridyl)-^1H-pyrrolo[3,2-b]pyridin-2-yl]-2-pyridyl]acetamide], for which the results for the IC50 on human CSNK1G3 and in the experiment on total-p53 in MCF-7 cells were 27.3 nM and 120 nM, respectively.
The like results for `Cc1ncc(CC(=O)Nc2cc(-c3[nH]c4cccnc4c3-c3ccccn3)ccn2)o1` [Example 24, 2-(2-methyloxazol-5-yl)-N-[4-[3-(2-pyridyl)-^1H-pyrrolo[3,2-b]pyridin-2-yl]-2-pyridyl]acetamide] were, in that order, 39.9 nM and 174 nM.
